# Reference: patent publication US12600732B2, “Bifunctional compounds for degrading BTK via ubiquitin proteosome pathway” (NURIX THERAPEUTICS, INC., priority 2019, dated 2026)
# Where two headings read alike, the source gives them in different places.
# Experiments:
# [1] = PK data for BTK CTMs (in vivo plasma concentrations); conditions: for Vd: read-out: Volume of Distribution
# Description: The present example evaluates in vivo plasma concentrations of BTK CTMs to develop PK-PD-efficacy relationship and predict human exposure.
# TEC kinase = molecular target: T1, TEC kinase (Homo sapiens, UniProt P42680); experiment: TEC kinase degradation in K562 cells (western blot); type: cell-based; conditions: FIGS. 13A-13D; for effects on TEC kinase levels: four hours, 0.026-2000 nM, western blot
# T1 construct: endogenous in cells; host or cells: K562
# T1 sequence (P42680 1-631): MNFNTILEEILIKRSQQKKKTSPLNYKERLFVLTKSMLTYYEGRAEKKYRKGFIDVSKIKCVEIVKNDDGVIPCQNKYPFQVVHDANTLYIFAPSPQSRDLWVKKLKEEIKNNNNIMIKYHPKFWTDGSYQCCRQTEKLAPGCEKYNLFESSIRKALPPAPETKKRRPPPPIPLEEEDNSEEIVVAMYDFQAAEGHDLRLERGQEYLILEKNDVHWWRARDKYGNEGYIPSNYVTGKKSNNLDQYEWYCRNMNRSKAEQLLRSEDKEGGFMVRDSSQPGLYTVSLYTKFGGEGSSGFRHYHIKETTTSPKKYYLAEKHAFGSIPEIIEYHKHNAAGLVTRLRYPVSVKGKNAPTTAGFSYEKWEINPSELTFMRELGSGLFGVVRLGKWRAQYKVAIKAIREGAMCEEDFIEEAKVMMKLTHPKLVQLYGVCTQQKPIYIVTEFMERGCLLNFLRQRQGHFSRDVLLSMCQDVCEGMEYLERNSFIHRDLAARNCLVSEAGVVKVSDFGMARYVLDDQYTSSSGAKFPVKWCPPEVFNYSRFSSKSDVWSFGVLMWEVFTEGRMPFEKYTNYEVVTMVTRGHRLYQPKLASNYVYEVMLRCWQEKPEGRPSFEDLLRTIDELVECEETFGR
# Experimental: To determine effects of BTK CTMs on TEC levels in cells, K562 cells were treated for four hours with CTMs at concentrations between 0.026-2000 nM. TEC levels in cell lysate was assessed by western blot.
# TMD8 C481S cells = experiment: Cell viability assay (CellTiter-Glo), TMD8 C481S cells; conditions: for EC50: Homo sapiens, TMD8, 72 h; for EMAX (% viable cells): TMD8 C481S cells, treatment time 72 h
# BTK [2] = molecular target: T2, BTK (Canis lupus familiaris, UniProt A0A8I3P3Z9); experiment: PD data from dog (BTK degradation); type: in vivo; conditions: blood
# T2 construct: from tissue
# T2 sequence (A0A8I3P3Z9 1-664): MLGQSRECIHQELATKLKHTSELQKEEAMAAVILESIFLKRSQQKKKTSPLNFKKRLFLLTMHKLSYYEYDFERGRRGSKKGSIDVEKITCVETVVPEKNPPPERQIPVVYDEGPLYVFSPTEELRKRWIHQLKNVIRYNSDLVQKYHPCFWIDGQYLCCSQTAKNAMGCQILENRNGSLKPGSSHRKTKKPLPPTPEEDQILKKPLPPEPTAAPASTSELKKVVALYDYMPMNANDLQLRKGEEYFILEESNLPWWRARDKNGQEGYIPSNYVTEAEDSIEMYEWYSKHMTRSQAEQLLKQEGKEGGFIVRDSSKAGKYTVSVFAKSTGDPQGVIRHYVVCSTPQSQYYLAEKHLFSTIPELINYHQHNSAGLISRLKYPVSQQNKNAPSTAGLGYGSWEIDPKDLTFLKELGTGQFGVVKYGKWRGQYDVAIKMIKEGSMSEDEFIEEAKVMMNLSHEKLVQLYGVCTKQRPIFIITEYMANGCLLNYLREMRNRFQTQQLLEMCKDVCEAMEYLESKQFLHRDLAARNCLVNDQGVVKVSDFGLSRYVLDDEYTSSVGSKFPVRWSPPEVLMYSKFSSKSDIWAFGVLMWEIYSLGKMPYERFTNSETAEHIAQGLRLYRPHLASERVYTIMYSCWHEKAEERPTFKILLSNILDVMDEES
# Description: (§1) In this example, compounds were profiled for activity in non-mouse species.
# BTK [3] = experiment: PD data from cyno (BTK degradation); type: in vivo; conditions: blood
# Description: as §1
# BTK [4] = molecular target: T3, BTK (Rattus norvegicus, UniProt Q5S255); experiment: PD data from rat (BTK degradation); type: in vivo; conditions: blood
# T3 construct: from tissue
# T3 sequence (Q5S255 1-660): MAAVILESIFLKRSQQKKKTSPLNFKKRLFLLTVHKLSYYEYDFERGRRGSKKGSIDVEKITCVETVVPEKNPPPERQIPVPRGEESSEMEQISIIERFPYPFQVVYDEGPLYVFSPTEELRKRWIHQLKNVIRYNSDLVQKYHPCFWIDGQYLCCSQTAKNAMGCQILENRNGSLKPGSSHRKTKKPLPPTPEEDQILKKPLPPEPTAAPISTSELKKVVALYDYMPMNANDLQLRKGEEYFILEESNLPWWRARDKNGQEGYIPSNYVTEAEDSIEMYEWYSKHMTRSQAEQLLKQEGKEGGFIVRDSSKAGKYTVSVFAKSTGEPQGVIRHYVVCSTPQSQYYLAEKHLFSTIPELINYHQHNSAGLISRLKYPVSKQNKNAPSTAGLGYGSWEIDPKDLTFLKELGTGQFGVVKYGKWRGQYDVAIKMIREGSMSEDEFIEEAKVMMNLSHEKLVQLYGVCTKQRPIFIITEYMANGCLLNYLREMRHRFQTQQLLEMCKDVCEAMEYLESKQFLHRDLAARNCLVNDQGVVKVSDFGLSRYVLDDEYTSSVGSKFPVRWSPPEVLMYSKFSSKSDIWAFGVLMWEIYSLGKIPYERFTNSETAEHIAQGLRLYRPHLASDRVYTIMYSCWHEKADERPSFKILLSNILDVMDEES
# Description: as §1
# [5] = Rat Sprague-Dawley, 10 mg/kg PO
# [6] = Rat Sprague-Dawley, 30 mg/kg PO
# [7] = Monkey cynomolgus, 0.75 mg/kg IV
compound,measurement,setting,value
CN1CCN([C@@H]2CCCN(c3cnc(C(N)=O)c(Nc4ccc(C5CCN(CC6CCN(c7ccc8c(=O)n(C9CCC(=O)NC9=O)ccc8c7)CC6)CC5)cc4)n3)C2)C1=O (stereo partly drawn) [Compound 72],AUC,"[1]; Mouse Balb/c, 1 mg/kg IV",3.96 µM·h
same,clearance,"[1]; Mouse Balb/c, 1 mg/kg IV",5.1 mL/min/kg
same,Vd,"[1]; Mouse Balb/c, 1 mg/kg IV",0.68 L/kg
same,AUC,"[1]; Mouse Balb/c, 10 mg/kg PO",2.9 µM·h
same,bioavailability,"[1]; Mouse Balb/c, 10 mg/kg PO",7%
same,degradation of BTK compared with TEC,TEC kinase,more potent degradation of BTK than TEC
same,effects on TEC kinase levels,TEC kinase,mild to moderate effects
same,EC50,TMD8 C481S cells,1.16 nM
same,EMAX (% viable cells),TMD8 C481S cells,21%
NC(=O)c1ncc(N2CCCCC2)nc1Nc1ccc(C2CCN(C[C@@H]3CCN(c4ccc5c(c4)C(=O)N(C4CCC(=O)NC4=O)C5=O)C3)CC2)cc1 (stereo partly drawn) [Compound 149],% BTK Remaining,"BTK [2]; 1 mg/kg IV, 2 h",43%
same,% BTK Remaining,"BTK [2]; 1 mg/kg IV, 4 h",22%
same,% BTK Remaining,"BTK [2]; 1 mg/kg IV, 8 h",10%
same,% BTK Remaining,"BTK [2]; 1 mg/kg IV, 24 h",11%
same,% BTK Remaining,"BTK [2]; 10 mg/kg PO, 2 h",61%
same,% BTK Remaining,"BTK [2]; 10 mg/kg PO, 4 h",47%
same,% BTK Remaining,"BTK [2]; 10 mg/kg PO, 8 h",29%
same,% BTK Remaining,"BTK [2]; 10 mg/kg PO, 24 h",17%
same,% BTK Remaining,"BTK [3]; 1 mg/kg IV, 2 h",24%
same,% BTK Remaining,"BTK [3]; 1 mg/kg IV, 4 h",9%
same,% BTK Remaining,"BTK [3]; 1 mg/kg IV, 8 h",4%
same,% BTK Remaining,"BTK [3]; 1 mg/kg IV, 24 h",7%
same,% BTK Remaining,"BTK [3]; 10 mg/kg PO, 2 h",81%
same,% BTK Remaining,"BTK [3]; 10 mg/kg PO, 4 h",39%
same,% BTK Remaining,"BTK [3]; 10 mg/kg PO, 8 h",17%
same,% BTK Remaining,"BTK [3]; 10 mg/kg PO, 24 h",12%
same,% BTK Remaining,"BTK [3]; 30 mg/kg PO, 2 h",89%
same,% BTK Remaining,"BTK [3]; 30 mg/kg PO, 4 h",51%
same,% BTK Remaining,"BTK [3]; 30 mg/kg PO, 8 h",26%
same,% BTK Remaining,"BTK [3]; 30 mg/kg PO, 24 h",19%
same,% BTK Remaining,"BTK [3]; 100 mg/kg PO, 2 h",97%
same,% BTK Remaining,"BTK [3]; 100 mg/kg PO, 4 h",56%
same,% BTK Remaining,"BTK [3]; 100 mg/kg PO, 8 h",20%
same,% BTK Remaining,"BTK [3]; 100 mg/kg PO, 24 h",12%
same,AUC,"[1]; Dog Beagle, 1 mg/kg IV",1.2 µM·h
same,clearance,"[1]; Dog Beagle, 1 mg/kg IV",18.4 mL/min/kg
same,Vd,"[1]; Dog Beagle, 1 mg/kg IV",7 L/kg
same,AUC,"[1]; Dog Beagle, 10 mg/kg PO",0.11 µM·h
same,bioavailability,"[1]; Dog Beagle, 10 mg/kg PO",0.9%
same,AUC,"[1]; Monkey cynomolgus, 1 mg/kg IV",1 µM·h
same,clearance,"[1]; Monkey cynomolgus, 1 mg/kg IV",22.2 mL/min/kg
same,Vd,"[1]; Monkey cynomolgus, 1 mg/kg IV",7.5 L/kg
same,AUC,"[1]; Monkey cynomolgus, 10 mg/kg PO",0.09 µM·h
same,bioavailability,"[1]; Monkey cynomolgus, 10 mg/kg PO",0.8%
same,AUC,"[1]; Monkey cynomolgus, 30 mg/kg PO",0.08 µM·h
same,AUC,"[1]; Mouse Balb/c, 1 mg/kg IV",4.5 µM·h
same,clearance,"[1]; Mouse Balb/c, 1 mg/kg IV",5.2 mL/min/kg
same,Vd,"[1]; Mouse Balb/c, 1 mg/kg IV",1 L/kg
same,AUC,"[1]; Mouse Balb/c, 10 mg/kg PO",16 µM·h
same,bioavailability,"[1]; Mouse Balb/c, 10 mg/kg PO",35%
same,AUC,"[1]; Mouse Balb/c, 30 mg/kg PO",27.7 µM·h
same,bioavailability,"[1]; Mouse Balb/c, 30 mg/kg PO",1%
same,AUC,"[1]; Mouse Balb/c, 90 mg/kg PO",37.5 µM·h
same,bioavailability,"[1]; Mouse Balb/c, 90 mg/kg PO",1%
same,AUC,"[1]; Mouse CD-1, 1 mg/kg IV",1.8 µM·h
same,clearance,"[1]; Mouse CD-1, 1 mg/kg IV",12.6 mL/min/kg
same,Vd,"[1]; Mouse CD-1, 1 mg/kg IV",1.5 L/kg
same,AUC,"[1]; Mouse CD-1, 10 mg/kg PO",11.5 µM·h
same,bioavailability,"[1]; Mouse CD-1, 10 mg/kg PO",64%
same,AUC,"[1]; Rat Sprague-Dawley, 1 mg/kg IV",1.2 µM·h
same,clearance,"[1]; Rat Sprague-Dawley, 1 mg/kg IV",19 mL/min/kg
same,Vd,"[1]; Rat Sprague-Dawley, 1 mg/kg IV",2.8 L/kg
same,AUC,[1]; [5],0.88 µM·h
same,bioavailability,[1]; [5],7%
same,degradation of BTK compared with TEC,TEC kinase,more potent degradation of BTK than TEC
same,effects on TEC kinase levels,TEC kinase,mild to moderate effects
same,EC50,TMD8 C481S cells,37.2 nM
same,EMAX (% viable cells),TMD8 C481S cells,18%
CN1CCN([C@@H]2CCCN(c3cnc(C(N)=O)c(Nc4ccc(C5CCN(CC6CCN(c7ccc(-c8nn(C9CCC(=O)NC9=O)c(=O)n8C)cc7)CC6)CC5)cc4)n3)C2)C1=O (stereo partly drawn) [Compound 121],AUC,"[1]; Mouse Balb/c, 1 mg/kg IV",2.87 µM·h
same,clearance,"[1]; Mouse Balb/c, 1 mg/kg IV",6.6 mL/min/kg
same,Vd,"[1]; Mouse Balb/c, 1 mg/kg IV",0.77 L/kg
same,AUC,"[1]; Mouse Balb/c, 30 mg/kg PO",2.22 µM·h
same,bioavailability,"[1]; Mouse Balb/c, 30 mg/kg PO",11%
same,AUC,"[1]; Rat Sprague-Dawley, 1 mg/kg IV",0.919 µM·h
same,clearance,"[1]; Rat Sprague-Dawley, 1 mg/kg IV",20 mL/min/kg
same,Vd,"[1]; Rat Sprague-Dawley, 1 mg/kg IV",3.12 L/kg
same,AUC,[1]; [5],0.083 µM·h
same,bioavailability,[1]; [5],1%
same,AUC,[1]; [6],0.73 µM·h
same,EC50,TMD8 C481S cells,4.94 nM
same,EMAX (% viable cells),TMD8 C481S cells,31%
CN1CCN([C@H]2CCCN(c3cnc(C(N)=O)c(Nc4ccc(C5CCN(CC6CCN(c7ccc(C(=O)NC8CCC(=O)NC8=O)nc7)CC6)CC5)cc4)n3)C2)C1=O (stereo partly drawn) [Compound 130],% BTK Remaining,"BTK [4]; 1 mg/kg IV, 4 h",<1%
same,% BTK Remaining,"BTK [4]; 1 mg/kg IV, 24 h",<1%
same,% BTK Remaining,"BTK [4]; 10 mg/kg PO, 4 h",<1%
same,% BTK Remaining,"BTK [4]; 10 mg/kg PO, 24 h",<1%
same,% BTK Remaining,"BTK [4]; 30 mg/kg PO, 4 h",<1%
same,% BTK Remaining,"BTK [4]; 30 mg/kg PO, 24 h",<1%
same,% BTK Remaining,"BTK [3]; 1 mg/kg IV, 2 h",8%
same,% BTK Remaining,"BTK [3]; 1 mg/kg IV, 4 h",6%
same,% BTK Remaining,"BTK [3]; 1 mg/kg IV, 8 h",5%
same,% BTK Remaining,"BTK [3]; 1 mg/kg IV, 24 h",13%
same,% BTK Remaining,"BTK [3]; 10 mg/kg PO, 2 h",4%
same,% BTK Remaining,"BTK [3]; 10 mg/kg PO, 4 h",<1%
same,% BTK Remaining,"BTK [3]; 10 mg/kg PO, 8 h",<3%
same,% BTK Remaining,"BTK [3]; 10 mg/kg PO, 24 h",<1%
same,% BTK Remaining,"BTK [3]; 30 mg/kg PO, 2 h",6%
same,% BTK Remaining,"BTK [3]; 30 mg/kg PO, 4 h",<1%
same,% BTK Remaining,"BTK [3]; 30 mg/kg PO, 8 h",<1%
same,% BTK Remaining,"BTK [3]; 30 mg/kg PO, 24 h",1%
same,AUC,"[1]; Dog Beagle, 1 mg/kg IV",0.16 µM·h
same,clearance,"[1]; Dog Beagle, 1 mg/kg IV",118 mL/min/kg
same,Vd,"[1]; Dog Beagle, 1 mg/kg IV",56 L/kg
same,AUC,"[1]; Dog Beagle, 10 mg/kg PO",0.17 µM·h
same,bioavailability,"[1]; Dog Beagle, 10 mg/kg PO",10%
same,AUC,"[1]; Dog Beagle, 30 mg/kg PO",0.23 µM·h
same,AUC,[1]; [7],0.17 µM·h
same,clearance,[1]; [7],90.9 mL/min/kg
same,Vd,[1]; [7],16 L/kg
same,AUC,"[1]; Monkey cynomolgus, 10 mg/kg PO",0.028 µM·h
same,bioavailability,"[1]; Monkey cynomolgus, 10 mg/kg PO",1%
same,AUC,"[1]; Monkey cynomolgus, 30 mg/kg PO",0.45 µM·h
same,AUC,"[1]; Mouse Balb/c, 1 mg/kg IV",3.4 µM·h
same,clearance,"[1]; Mouse Balb/c, 1 mg/kg IV",6 mL/min/kg
same,Vd,"[1]; Mouse Balb/c, 1 mg/kg IV",0.72 L/kg
same,AUC,"[1]; Mouse Balb/c, 10 mg/kg PO",5.81 µM·h
same,bioavailability,"[1]; Mouse Balb/c, 10 mg/kg PO",17%
same,AUC,"[1]; Mouse Balb/c, 30 mg/kg PO",2.3 µM·h
same,AUC,"[1]; Mouse CD-1, 1 mg/kg IV",1.7 µM·h
same,clearance,"[1]; Mouse CD-1, 1 mg/kg IV",11.6 mL/min/kg
same,Vd,"[1]; Mouse CD-1, 1 mg/kg IV",1.4 L/kg
same,AUC,"[1]; Mouse CD-1, 10 mg/kg PO",5.2 µM·h
same,bioavailability,"[1]; Mouse CD-1, 10 mg/kg PO",33%
same,AUC,"[1]; Rat Sprague-Dawley, 1 mg/kg IV",0.18 µM·h
same,clearance,"[1]; Rat Sprague-Dawley, 1 mg/kg IV",99.5 mL/min/kg
same,Vd,"[1]; Rat Sprague-Dawley, 1 mg/kg IV",32 L/kg
same,AUC,[1]; [5],0.69 µM·h
same,bioavailability,[1]; [5],32%
same,AUC,[1]; [6],1.62 µM·h
same,bioavailability,[1]; [6],7%
same,degradation of BTK compared with TEC,TEC kinase,more potent degradation of BTK than TEC
same,effects on TEC kinase levels,TEC kinase,mild to moderate effects
same,EC50,TMD8 C481S cells,4.83 nM
same,EMAX (% viable cells),TMD8 C481S cells,33%
